# Experimental data as given in patent US20240269298A1, “PHOSPHONYL DERIVATIVE, AND COMPOSITION AND PHARMACEUTICAL APPLICATION THEREOF” (XIZANG HAISCO PHARMACEUTICAL CO., LTD., priority 2021, published 2024).
# pIC50: −log10 of the molar value. Where two headings read alike, the source gives them in different places.
# Tests used:
# A431 (EGFR-WT) cells = experiment: Inhibitory activity on proliferation of A431 (EGFR-WT) cells (CTG, 72 h); format: cell-based; conditions: Homo sapiens, A-431
# Procedure, shortened: (§1)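 IC50 values come from S-shaped dose-survival fits of CTG signal expressed as % of vehicle. Compound exposure lasted 72 h at 37 °C with 0.1% DMSO; seeding was 3000 A431 cells/well in DMEM+10% FBS and 1000 NCI-H1975 cells/well in RPMI1640+10% FBS.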
# [1] = test system: Ba/F3-TEL-EGFR-T790M-L858R-C797S cells; experiment: Inhibitory activity on proliferation of Ba/F3-TEL-EGFR-T790M-L858R-C797S cells (CellTiter-Glo, 72 h); format: cell-based
# Description: Ba/F3-TEL-EGFR-T790M-L858R-C797S cells were cultured in an incubator at 37° C. with 5% CO2. The cells in the logarithmic phase were collected, counted and plated in a 96-well plate at a density of 2000 cells/well. The compounds at different concentrations were added, and a vehicle control group (cells plus DMSO) and a blank control group (cell culture mediums plus DMSO) were provided, wherein the concentration of DMSO was both 0.1%. The cell culture plate was cultured in an incubator at 37° C. with 5% CO2 for 72 hours. After the incubation was completed, the cell culture plate was removed and allowed to equilibrate to room temperature for 10 min. […] The plate was placed at room temperature for 10 min, and then […] signal values were measured using a microplate reader (SpectraMax Paradigm). […] The inhibition rates corresponding to different concentrations of compounds were calculated, and using the GraphPad Prism software, the inhibition rate curves were plotted, and IC50 values were calculated. wherein RLUDrug was the readout of the drug-treated group, RLUMax was the readout of the control group, and RLUMin was the readout of the blank group.
# [2] = test system: NCI-H1975 EGFR-L858R-T790M-C797S cells; experiment: Inhibitory activity on proliferation of NCI-H1975 EGFR-L858R-T790M-C797S cells (CellTiter-Glo, 72 h); format: cell-based; conditions: Homo sapiens
# Procedure, shortened: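 Cells (1500/well) exposed to graded compound concentrations for 72 h at 37 °C in hygromycin-free RPMI1640 + 10% FBS, 0.1% DMSO vehicle. Viability by CellTiter-Glo luminescence relative to vehicle; IC50 from nonlinear sigmoidal dose-survival fit.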
# [3] = test system: NCI-H1975 (EGFR-L858R-T790M) cells; experiment: Inhibitory activity on proliferation of NCI-H1975 (EGFR-L858R-T790M) cells (CTG, 72 h); format: cell-based; conditions: Homo sapiens
# Procedure, shortened: as §1
# [4] = Pharmacokinetic test in mice; format: in vivo; conditions: male, ICR, mouse, po, administration i.g. (10 mg/kg), plasma
# Procedure, shortened: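 Male ICR mice (20-25 g), fasted 12-14 h before dosing and fed 4 h after, received a single intravenous or intragastric dose. Orbital plasma sampled from 0 to 24 h (5 min-24 h points); LC-MS/MS quantitation for PK parameters and bioavailability.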
# [5] = read-out: IC50 (value in brackets)
pIC50 (A431 (EGFR-WT) cells),pIC50 [1],pIC50 ([2]; read-out: IC50 (class symbol)),pIC50 ([2]; read-out: IC50 (value)),pIC50 ([3]; read-out: IC50 (class symbol)),"pIC50 [3, 5]",AUC [4] [µg·h/mL],half-life [4] [h],SMILES
≤ 5.00,7.81,> 6.70,6.95,> 7.00,7.27,145,18,"COc1cc(N2CCC(CN3CCN(c4ccc5c(c4)C(=O)N(C4CCC(=O)NC4=O)C5=O)CC3)CC2)c(-c2cnn(C)c2)cc1Nc1ncc(Br)c(Nc2ccc(C3CC3)cc2P(C)(C)=O)n1 (stereo not shown) [Compound 106, 5-(4-((1-(4-((5-bromo-4-((4-cyclopropyl-2-(dimethylphosphoryl)phenyl)amino)pyrimidin-2-yl)amino)-5-methoxy-2-(1-methyl-1H-pyrazol-4-yl)phenyl)piperidin-4-yl)methyl)piperazin-1-yl)-2-(2,6-dioxopiperidin-3-yl)isoindoline-1,3-dione]"
≤ 5.00,7.81,> 6.70,7.35,> 7.00,7.25,130,13.9,"COc1cc(N2CCC(CN3CCN(c4ccc5c(c4)C(=O)N(C4CCC(=O)NC4=O)C5=O)CC3)CC2)c(-c2cnn(C)c2)cc1Nc1ncc(Cl)c(Nc2ccc(C3CC3)cc2P(C)(C)=O)n1 (stereo not shown) [Compound 107, 5-(4-((1-(4-((5-chloro-4-((4-cyclopropyl-2-(dimethylphosphoryl)phenyl)amino)pyrimidin-2-yl)amino)-5-methoxy-2-(1-methyl-1H-pyrazol-4-yl)phenyl)piperidin-4-yl)methyl)piperazin-1-yl)-2-(2,6-dioxopiperidin-3-yl)isoindoline-1,3-dione]"
